# B1: C5a: recombinant mouse C5a (R&D Systems) (protein, UniProt P06684 679-755, looked up)
# C5a anaphylatoxin: NLHLLRQKIEEQAAKYKHSVPKKCCYDGARVNFYETCEERVARVTIGPLCIRAFNECCTIANKIRKESPHKPVQLGR
# modifications: C5a anaphylatoxin
# B2: catalase: enzyme neutralizing hydrogen peroxide (C40, Sigma) (protein, UniProt P00432 2-527, looked up)
# Catalase: ADNRDPASDQMKHWKEQRAAQKPDVLTTGGGNPVGDKLNSLTVGPRGPLLVQDVVFTDEMAHFDRERIPERVVHAKGAGAFGYFEVTHDITRYSKAKVFEHIGKRTPIAVRFSTVAGESGSADTVRDPRGFAVKFYTEDGNWDLVGNNTPIFFIRDALLFPSFIHSQKRNPQTHLKDPDMVWDFWSLRPESLHQVSFLFSDRGIPDGHRHMNGYGSHTFKLVNANGEAVYCKFHYKTDQGIKNLSVEDAARLAHEDPDYGLRDLFNAIATGNYPSWTLYIQVMTFSEAEIFPFNPFDLTKVWPHGDYPLIPVGKLVLNRNPVNYFAEVEQLAFDPSNMPPGIEPSPDKMLQGRLFAYPDTHRHRLGPNYLQIPVNCPYRARVANYQRDGPMCMMDNQGGAPNYYPNSFSAPEHQPSALEHRTHFSGDVQRFNSANDDNVTQVRTFYLKVLNEEQRKRLCENIAGHLKDAQLFIQKKAVKNFSDVHPEYGSRIQALLDKYNEEKPKNAVHTYVQHGSHLSAREKANL
# Columns and labels:
# [1] = test system: B16 cells; assay: Mouse in vitro cytotoxicity (EuTDA), B16 cells co-cultured with neutrophils; assay type: cell-based; details: for effect of agent on ex vivo killing of tumor cells by neutrophils: neutrophils from treated tumors stimulated with neutrophil-activating therapy
# Description: B16 tumors were treated by intratumoral injection of TNF+anti-CD40+anti-gp75 and harvested 12 hours post-treatment. Tumors were dissected away from any surrounding fat, minced, and digested in 5 mg/ml collagenase IV (Worthington) plus 0.1 mg/ml DNase I (Sigma) with continuous mixing by magnetic stir bars for 20 minutes at 37° C. in RPMI-1640 (Gibco) with 2% FBS. Following digestion, tissue was mashed through a […] cell strainer (Falcon) and washed. For some studies, bone marrow was harvested by grinding bones from tumor-naive untreated mice in a mortar and pestle and mashing through a […] strainer (Falcon). Neutrophils were isolated from tumor and bone marrow samples with the MojoSort Mouse Ly6G Selection Kit (BioLegend), according to the manufacturer's instructions, and used in the cytotoxicity assay.
# Cytotoxicity assays were conducted using the EuTDA assay from the DELFIA TRF cytotoxicity kit (PerkinElmer) according to the manufacturer's instructions. Briefly, B16 cells were labeled for 10 minutes with BATDA, and 5×10^3 labeled cells were added per well to a 96 well V-bottom plate in RPMI-1640. Neutrophils were added at a ratio of 10:1 unless otherwise stated. All co-cultures were conducted in the presence of TNF (10 ng/ml), anti-CD40 (1 μg/ml), anti-gp75 (1 μg/ml), and 10% active mouse C57BL/6 complement serum (Innovative Research), except where indicated otherwise. Mouse C57BL/6 complement serum was heat-inactivated for 40 minutes at 57° C. where inactivation is specified. In some experiments, mouse IgG2a isotype control (1 μg/ml, isotype control for anti-gp75, clone C1.18.4, Bio X Cell), anti-mouse CD16/CD32 (10 μg/ml, clone 2.4G2, Bio X Cell), recombinant mouse C5a (50 nM, R&D Systems), anti-C5a (25 μg/ml, clone 295108, R&D Systems), rat IgG2a isotype control (25 μg/ml, isotype control for anti-C5a, clone 2A3, Bio X Cell), anti-C5AR1 (5 μg/ml, clone 20/70, BioLegend), rat IgG2b isotype control (5 μg/ml, isotype control for anti-C5AR1, clone LTF-2, Bio X Cell), SC57461A (10 μM, Cayman Chemical), CP-105696 (1 μM, Sigma), topiroxostat (10 μM, MedChem Express), or DMSO (vehicle for SC57461A, CP-105696, and topiroxostat) were added to the wells with the B16 and neutrophils. After 4 hours of co-culture at 37° C., supernatant was taken from the wells, Europium solution was added, and TDA released from lysed B16 cells was detected by […] on a Victor X4 fluorescence microplate reader (PerkinElmer). Percent maximal lysis was determined by calculating the specific release of TDA using the formula: (experimental release−spontaneous release)/(maximum release −spontaneous release), where spontaneous release was determined by wells containing no neutrophils and maximum release was determined by wells with lysis buffer added.
# For trogocytosis studies investigating transfer of tumor-binding antibody, anti-gp75 labeled with AF647 (clone TA99, Novus Biologicals) was used in place of unlabeled anti-gp75. For studies investigating transfer of B16 cell membrane, DiD′ Solid (ThermoFisher Scientific) was reconstituted in DMSO at 10 mg/ml and diluted to a working solution of 5 μg/ml in serum-free DMEM. B16 cells were labeled in this solution for 20 minutes at 37° C. at 1×10^6 cells/ml. Labeled B16 was washed 3 times in warm media before being added to the co-culture wells with the neutrophils. Following co-culture, flow cytometry was used to identify DiD signal in neutrophils.
# [2] = test system: B16 tumors; assay: TUNEL staining of cell death in B16 tumors; assay type: in vivo, mouse; details: agent given prior to neutrophil-activating therapy
# Description: Tumors were dissected away from surrounding fat, fixed in 2% paraformaldehyde for 2 hours at 4° C., equilibrated in a 30% sucrose solution at 4° C., and embedded and frozen in O.C.T. Compound (Tissue-Tek). Slides were cut to […] and blocked with 1% BSA and 10% serum matched to the secondary antibody species. The following antibodies were used for immunofluorescence: PE anti-Ly6G (clone 1A8, BioLegend), DyLight 650 anti-gp75 (clone TA99, Bio X Cell, labeled using DyLight 650 NHS Ester (Thermo Scientific)), fluorescein anti-gp75 (clone TA99, Bio X Cell, labeled using NHS-Fluorescein (Thermo Scientific)), FITC anti-DNA/RNA damage (clone 15A3, recognizing 8-hydroxy-2′-deoxyguanosine/8-oxo-7,8-dihydroguanine/8-oxo-7,8-dihydroguanosine, Abcam), and AF647 anti-C3 (clone 11H9, Novus Biologicals). DAPI (Invitrogen) was stained at 1 μg/ml. FITC/fluorescein signal was amplified using AF488 anti-FITC (ThermoFisher Scientific), and PE was amplified using biotin anti-PE (clone PE001, BioLegend) followed by DyLight 594 streptavidin (BioLegend) or DyLight 649 streptavidin (BioLegend). Prior to use of biotinylated antibodies, endogenous biotin was blocked using the Avidin/Biotin Blocking Kit (Vector Laboratories). Prior to DNA/RNA damage staining, sections were permeabilized with 0.1% Triton X-100 in 0.1% sodium citrate. TUNEL (Terminal deoxynucleotidyl transferase dUTP nick end labeling) staining was performed using the In Situ Cell Death Detection Kit, TMR Red (Roche) according to the manufacturer's instructions. […] All parameters that were quantified were acquired with identical microscope settings and adjusted identically in Photoshop, and all adjustments were applied equally across the entire tumor. Quantification was performed in ImageJ, using the wand tool on the overlaid multichannel image to draw a border around the tumor and then measuring the percent area within that border with signal for the channel of the marker quantified.
# [3] = test system: naive neutrophils; assay: Mouse in vitro neutrophil stimulations; assay type: cell-based
# Description: Mouse in vitro neutrophil stimulations. Bone marrow was harvested by grinding bones in a mortar and pestle and mashing through a […] strainer (Falcon). Neutrophils were isolated by negative selection with the MojoSort Mouse Neutrophil Isolation Kit (BioLegend). Following isolation, neutrophils were plated in Opti-MEM (Gibco) at 1×10^5 cells in 100 μl and stimulated with 10 ng/ml TNF, 1 μg/ml anti-CD40, 1 μg/ml anti-gp75, and/or 50 nM recombinant mouse C5a (R&D Systems) for 30 minutes at 37° C. After 30 minutes, the supernatant was collected, centrifuged to remove cells and debris, and analyzed for LTB4 using the Leukotriene B4 ELISA kit (Cayman Chemical 520111) as described above. Additionally, stimulated neutrophils were stained for activation markers and analyzed by flow cytometry as described above.
molecule,measurement,setting,value
CN(CCCOc1ccc(Cc2ccccc2)cc1)CCC(=O)O.Cl [SC57461A],effect of agent on ex vivo killing of tumor cells by neutrophils,[1],prevented ex vivo killing of tumor cells
same,effect of agent on treatment-induced tumor cell death,[2],prevented treatment-induced tumor cell death
"N[C@@H](CCC(=O)N[C@@H](CS)C(=O)NCC(=O)O)C(=O)O [GSH, Reduced L-glutathione]",effect of agent on ex vivo killing of tumor cells by neutrophils,[1],blocked ex vivo killing of tumor cells
same,effect of agent on treatment-induced tumor cell death,[2],decreased tumor cell death in vivo
O=C(O)C1(c2ccc3c(c2)OC[C@H](Cc2ccc(-c4ccccc4)cc2)[C@H]3O)CCCC1 [CP-105696],effect of agent on ex vivo killing of tumor cells by neutrophils,[1],prevented ex vivo killing of tumor cells
B1,requirement for ex vivo killing of B16 cells by tumor-infiltrating neutrophils,[1],required C5a or serum containing functional complement
same,neutrophil activation,[3]; in vitro,activated neutrophils
same,LTB4 production by neutrophils,[3]; in vitro stimulation,induced LTB4
B2,effect of agent on ex vivo killing of tumor cells by neutrophils,[1],blocked ex vivo killing of tumor cells

# Reference: patent US20250263496A1, “Neutrophil-Activating Therapy for the Treatment of Cancer” (The Board of Trustees of the Leland Stanford Junior …, priority 2024, published 2025)
